According to patent publication US10577399B2, “Modified lantibiotics and methods of making and using the modified lantibiotics” (priority 2016, dated 2020):
No end group written: not given here.

What was measured:
[1] = system: S. pneumoniae AI11; assay: MIC against clinical S. pneumoniae isolate AI11; assay type: cell-based, Streptococcus pneumoniae; conditions: 50% blood added
Experimental: (§1) Minimum Inhibitory Concentrations (MICs) were determined according to previously published protocol^31. A stock solution of the antibiotics tested was first suspended in 50% acetonitrile (ACN) at a concentration 640 μg/mL. This stock was subsequently diluted 2-fold until a final concentration 0.156 μg/mL was reached. Subsequently, 10 μl of each dilution was placed into a well on a 96 well microtiter plate. M. luteus ATCC 10240, S. pneumoniae, and B. subtilis PY79 were grown overnight in THyex at 37° C. Cultures were diluted in the morning to 0.1 OD600 and allowed to grow to 0.6 OD600. This culture was diluted a 100-fold in fresh THyex media and then 400 μl of this culture was added to 10 mL of fresh THyex. The suspension contains approximately 10^5 colony forming units (CFUs). The bacterial suspension (190 μL) was added to each well containing 10 μL of antibiotic suspension or solvent blank. […] Following the 15 minute pretreatment, 190 μL was added to each well as described above. The MIC is described as the […] concentration of antibiotic that prevented visible growth after 24 hours.
(§2) Selective activity and stability of analogs: Several core peptide mutants are provided that have improved activity against our ATCC strain of S. pneumoniae. […]

[2] = system: S. pneumoniae AI8; assay: MIC against clinical S. pneumoniae isolate AI8; assay type: cell-based, Streptococcus pneumoniae; conditions: 50% blood added
Experimental: as §1, §2

[3] = system: S. pneumoniae AI16; assay: MIC against clinical S. pneumoniae isolate AI16; assay type: cell-based, Streptococcus pneumoniae; conditions: 50% blood added
Experimental: as §1, §2

[4] = system: C. accolens ATCC 49725; assay: MIC/MLC assay against C. accolens ATCC 49725; assay type: cell-based; conditions: THyex broth with 1% Tween 80
[5] = system: M. luteus ATCC 10240; assay type: cell-based, Micrococcus luteus; conditions: Table 11
Experimental: as §1
FIG. 11 illustrates the bioactivity of various core peptide mutants of mutacin 1130. The activity of the core mutant peptides is expressed as a ratio of the area of the zone of inhibition of each mutant strain to the area of the zone of inhibition of the wild-type strain against indicator strain of Micrococcus luteus. […] The deferred antagonism assay is an overlay assay of the indicator strain onto plates containing heat killed colonies of the mutacin producer strain after growing overnight. Core peptide mutants having inhibitory activity were isolated and the purified products were further evaluated by a standard minimum inhibitory concentration (MIC) assay.

[6] = system: S. pneumoniae AI17; assay: MIC against clinical S. pneumoniae isolate AI17; assay type: cell-based, Streptococcus pneumoniae; conditions: 50% blood added
Experimental: as §1, §2

[7] = system: S. aureus ATCC 25923; assay: MIC/MLC assay against S. aureus; assay type: cell-based, Staphylococcus aureus; conditions: Table 11
[8] = system: S. pneumoniae AI14; assay: MIC against clinical S. pneumoniae isolate AI14; assay type: cell-based, Streptococcus pneumoniae; conditions: 50% blood added
Experimental: as §1, §2

[9] = system: C. accolens KPL 1818; assay: MIC/MLC assay against C. accolens KPL 1818; assay type: cell-based; conditions: THyex broth with 1% Tween 80
[10] = system: S. pneumoniae ATCC 27336; assay type: cell-based, Streptococcus pneumoniae; conditions: Table 11
Experimental: as §1, with “hours. […]” for “hours.”

[11] = system: M. luteus ATCC 10240; assay: Deferred antagonism (overlay) assay, zone of inhibition; assay type: cell-based, Micrococcus luteus; conditions: relative to wild-type strain
Experimental: The deferred antagonism assay was performed as previously described^39. S. mutans strains were grown overnight in THyex broth at 37° C. The cultures were diluted to 0.1 OD OD600 and grown to mid-logarithmic phase before diluting to 0.05 OD600. Then, 2 μl of the cultures were spotted on THyex plates in duplicates of triplicates. The wild-type S. mutans JH1140 and S. mutans ΔmutA were used as positive and negative controls for activity, respectively. The plates were incubated for 18 hours in a candle jar at 37° C. After incubation, the strains were heat killed at 65° C. for 90 minutes. Fresh M. luteus grown overnight at 37° C. on THyex plates were used to inoculate pre-warmed THyex broth. The culture was grown to 0.6 to 0.8 OD before diluting to 0.2 OD600. The culture was further diluted 25-fold in melted (42° C.) THyex top agar. Approximately 5 mL of the top agar solution was spread on the heat killed bioassay plates and allowed to cool for 10 minutes. The plates were then placed in the incubator (at 37° C.) for 18 hours.
Streptococcus mutans ATCC 55676 (wild-type) and the mutants that were at an OD600 of 0.2 were spotted in triplicates on a pre-warmed THyex agar plate (150×15 mm) and allowed to dry. This assay was performed in this manner to ensure that each sample had the same colony size for comparing zones of inhibition. The plate was incubated for 24 hours then placed in an oven at 50° C. for thirty minutes to kill the bacteria before the indicator strain was overlaid. Heat killing the bacteria prevents any further antimicrobial compound production so that results seen are from single day incubation. Zone diameter was measured in millimeters across the plate and compared to wild-type (i.e. zone I for ATCC compared to zone I of Trp4Ala, etc.).

[12] = system: B. subtilis PY79 cells; assay: Confocal microscopy localization of fluorescein labeled peptides; assay type: cell-based, Bacillus subtilis; conditions: 10 μg/mL, 15 minutes
Experimental: B. subtilis PY79 was grown and treated with fluorescein labeled peptide as previously described^39. A fresh plate of B. subtilis was used to inoculate THyex broth and incubated approximately 16 hours at 37° C. The culture was diluted 20-fold and placed back in the incubator for 3 hours at 37° C. Then, 100 μl of the culture was incubated with the antibiotic (10 μg/mL) for 15 minutes. The cells were pelleted and resuspended in 100 μl of phosphate buffer solution (PBS). The wash step was repeated three times before fixing with 1.6% formaldehyde in PBS. After fixation the cells were washed with PBS three more times and the remaining pellet was suspended in 50 μL of PBS. The sample (30 μL) was added to a slide and observed using an Olympus confocal microscope with a 100×/0.90 dry objective. A 488 nm argon laser was used to excite the fluorophore. For the competition assay, the bacterial culture was initially incubated with mu1140-COOH or native mutacin 1140 at a concentration of 10 μg/mL for 15 minutes, washed, and resuspended in fresh media. 10 μg/mL of fluorescein labeled nisin was then added for 15 minutes, before following the wash protocol previously stated.

Row | Substance | MIC S. pneumoniae AI11 [1] [micrograms per milliliter] | MIC S. pneumoniae AI8 [2] [micrograms per milliliter] | MIC S. pneumoniae AI16 [3] [micrograms per milliliter] | C. accolens ATCC 49725 MIC [4] [micrograms per milliliter] | C. accolens ATCC 49725 MLC [4] [micrograms per milliliter] | M. luteus ATCC 10240 MIC [5] [micrograms per milliliter] | M. luteus ATCC 10240 MLC [5] [micrograms per milliliter] | MIC S. pneumoniae AI17 [6] [micrograms per milliliter] | S. aureus ATCC 25923 MIC [7] [micrograms per milliliter] | S. aureus ATCC 25923 MLC [7] [micrograms per milliliter] | MIC S. pneumoniae AI14 [8] [micrograms per milliliter] | C. accolens KPL 1818 MIC [9] [micrograms per milliliter] | C. accolens KPL 1818 MLC [9] [micrograms per milliliter] | S. pneumonia ATCC 27336 MIC [10] [micrograms per milliliter] | S. pneumonia ATCC 27336 MLC [10] [micrograms per milliliter] | zone of inhibition / inhibitory activity in deferred antagonism assay [11] | in vivo localization pattern of fluorescein labeled peptide [12] | in vivo localization pattern of fluorescein labeled peptide ([12]; listed as Fluorescein conjugated nisin)
1 | T14A: core peptide mutant of mutacin 1140, Threonine 14 replaced by Alanine (FKSWSLCTPGCARAGSFNSYCC; UniProt O68586 42-63, looked up, variant T14A) [Mutant T14A] | 4 | 8 | 8 | 0.25 | 0.25 | 0.125 | 0.125 | 8 | 8 | 16 | 2 | 0.5 | 2 | 0.5 | 0.5 | no change in activity |  | 
2 | T14G: core peptide mutant of mutacin 1140, Threonine 14 replaced by Glycine (FKSWSLCTPGCARGGSFNSYCC; not fully specified; ends and bridges not checked; UniProt O68586 42-63, looked up, variant T14G) [Mutant T14G] | 2 | 8 | 8 | 0.0625 | 0.0625 | 0.0625 | 0.0625 | 8 | >32 | >32 | 1 | 0.25 | 0.5 | 0.5 | 0.5 |  |  | 
3 | fluorescein labeled nisin: nisin containing a C-terminal conjugate of fluorescein (ITSISLCTPGCKTGALMGCNMKTATCHCSIHVSK-fluorescein; ends and bridges not checked; also: lantibiotic thioether (lanthionine) rings and dehydrated residues, places not given here; UniProt P13068 24-57, looked up) |  |  |  |  |  |  |  |  |  |  |  |  |  |  |  |  | large green patches on the cell surface | binds and abducts lipid II to form patches
